By Ki is commonly meant the equilibrium dissociation constant of an inhibitor or competing ligand from its target. The term IC50 denotes the point on the concentration scale where inhibition reaches its midpoint.

For assay [1], the target named is Apoptosis regulator Bcl-2 (Homo sapiens, UniProt P10415). Nature of the assay: Inhibition of Bcl-2 (unknown origin) using 5-FAM-Bid-BH3 as substrate preincubated for 30 mins before substrate addition measured after 20 mins by fluorescence polarization technique. A general note: In fluorescence polarisation assays a small probe gives low polarisation when free and higher when bound to something large.

In the next assay the target is Bcl-2-like protein 1 (Homo sapiens, UniProt Q07817). Nature of the assay: Inhibition of Bcl-XL (unknown origin) using 5-FAM-Bid-BH3 as substrate preincubated for 30 mins before substrate addition measured after 20 mins by fluorescence polarization technique.
Assay [2] concerns the target Induced myeloid leukemia cell differentiation protein Mcl-1 (Homo sapiens, UniProt Q07820). Nature of the assay: Inhibition of Mcl-1 (unknown origin) using 5-FAM-Bid-BH3 as substrate preincubated for 30 mins before substrate addition measured after 20 mins by fluorescence polarization technique.
Another assay has as its system MDA-MB-231. Put plainly: Antiproliferative activity against human MDA-MB-231 cells after 48 hrs by MTT assay. To be noted: MDA-MB-231, 48 h. The assay is classed as functional, cell-based. Background: Formazan colour is commonly taken as a measure of viable cells.
The nature of the next assay: cells. The conditions noted are these: Homo sapiens, PC-3, 48 h.
Another assay concerns K562. Put plainly: cells. To be noted: Homo sapiens, K562, 48 h.

Induced myeloid leukemia cell differentiation protein Mcl-1, sequence (Q07820 whole entry): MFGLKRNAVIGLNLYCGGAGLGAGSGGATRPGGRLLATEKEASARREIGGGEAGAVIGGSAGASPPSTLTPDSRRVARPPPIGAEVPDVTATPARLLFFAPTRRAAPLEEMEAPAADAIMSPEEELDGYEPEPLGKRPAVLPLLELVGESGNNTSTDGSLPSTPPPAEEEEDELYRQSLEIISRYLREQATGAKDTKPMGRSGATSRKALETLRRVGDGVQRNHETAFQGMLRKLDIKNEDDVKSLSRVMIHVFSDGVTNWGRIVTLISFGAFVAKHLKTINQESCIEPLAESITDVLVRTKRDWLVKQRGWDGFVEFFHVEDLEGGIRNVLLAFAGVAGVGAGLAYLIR
Apoptosis regulator Bcl-2, sequence (P10415 whole entry): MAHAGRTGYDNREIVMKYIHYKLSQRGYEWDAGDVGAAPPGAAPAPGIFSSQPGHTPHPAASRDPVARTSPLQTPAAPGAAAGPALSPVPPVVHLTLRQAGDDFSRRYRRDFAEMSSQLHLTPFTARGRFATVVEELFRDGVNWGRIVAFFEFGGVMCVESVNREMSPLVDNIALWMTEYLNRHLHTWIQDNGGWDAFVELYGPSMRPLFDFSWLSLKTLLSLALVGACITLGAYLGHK
Bcl-2-like protein 1, sequence (Q07817 whole entry): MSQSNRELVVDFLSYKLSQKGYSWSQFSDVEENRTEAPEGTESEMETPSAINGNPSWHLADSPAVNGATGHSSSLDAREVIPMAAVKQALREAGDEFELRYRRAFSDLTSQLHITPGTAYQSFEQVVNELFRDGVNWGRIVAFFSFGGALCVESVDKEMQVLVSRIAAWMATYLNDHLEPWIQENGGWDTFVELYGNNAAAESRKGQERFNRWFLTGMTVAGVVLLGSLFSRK

`O=C(NS(=O)(=O)c1ccc(Cl)c([N+](=O)[O-])c1)[C@H](Cc1ccccc1)N1C(=O)/C(=C/c2ccc(-c3ccc(Cl)cc3)cc2)SC1=S` returned a Ki in assay [1] of 1900 nM. The same measure, in the same setting: the same measure for `O=C(NS(=O)(=O)c1ccccc1)[C@H](Cc1ccc(Br)cc1)N1C(=O)/C(=C/c2ccc(-c3ccccc3)cc2)SC1=S`: 520 nM. Regarding `O=C(NS(=O)(=O)c1ccc([N+](=O)[O-])cc1)[C@H](Cc1ccc(Br)cc1)N1C(=O)/C(=C/c2ccc(-c3ccc([N+](=O)[O-])cc3)cc2)SC1=S`, the Ki result at Bcl-2-like protein 1 was “Not Active”; in assay [1], 360 nM; in assay [2] it was 74 nM. Besides, the results for the IC50 in the assay on MDA-MB-231, in the assay “cells” and in the assay with K562 were 30400 nM, 40700 nM and 7900 nM, respectively. Compound `Cc1ccc(-c2ccc(/C=C3\SC(=S)N([C@@H](Cc4c[nH]c5ccccc45)C(=O)NS(=O)(=O)c4ccc([N+](=O)[O-])cc4)C3=O)cc2)cc1` came in with an inhibition constant Ki in assay [1] of 720 nM. In assay [1], `O=C(NS(=O)(=O)c1ccc([N+](=O)[O-])cc1)[C@H](Cc1c[nH]c2ccccc12)N1C(=O)/C(=C/c2ccc(-c3ccc([N+](=O)[O-])cc3)cc2)SC1=S` had a Ki of 80 nM. As for `CSCC[C@@H](C(=O)NS(=O)(=O)c1ccccc1)N1C(=O)/C(=C/c2ccc(-c3ccccc3)cc2)SC1=S`, the Ki in assay [1] stood at 950 nM. In the case of `O=C(NS(=O)(=O)c1ccccc1)[C@H](Cc1ccc(Br)cc1)N1C(=O)/C(=C/c2ccc(-c3ccc([N+](=O)[O-])cc3)cc2)SC1=S`, the Ki was determined as 540 nM at Bcl-2-like protein 1 (read-out: Ki), 420 nM in assay [1] and 86 nM in assay [2]. Also, the figures for the IC50 in the assay on MDA-MB-231, in the assay “cells” and in the assay on K562 were 46200 nM, greater than 50000 nM and greater than 50000 nM, respectively.

The compound `O=C(NS(=O)(=O)c1ccc([N+](=O)[O-])cc1)[C@H](Cc1c[nH]c2ccccc12)N1C(=O)/C(=C/c2ccc(-c3ccc(Cl)cc3)cc2)SC1=S` had a Ki in assay [1] of 680 nM. Take `O=C(NS(=O)(=O)c1ccc(Cl)c([N+](=O)[O-])c1)[C@H](Cc1ccc(Br)cc1)N1C(=O)/C(=C/c2ccc(-c3ccc(Cl)cc3)cc2)SC1=S`: the Ki in assay [1] came out at 700 nM.

`CC(C)[C@@H](C(=O)NS(=O)(=O)c1ccccc1)N1C(=O)/C(=C/c2ccc(-c3ccccc3)cc2)SC1=S` yielded a Ki in assay [1] of 630 nM.

`O=C(NS(=O)(=O)c1ccc([N+](=O)[O-])cc1)[C@H](Cc1ccccc1)N1C(=O)/C(=C/c2ccc(-c3ccc(Cl)cc3)cc2)SC1=S` yielded a Ki in assay [1] of 660 nM. The same measure, in the same setting: under `O=C(NS(=O)(=O)c1ccc(Cl)c([N+](=O)[O-])c1)[C@H](Cc1c[nH]c2ccccc12)N1C(=O)/C(=C/c2ccc(-c3ccc([N+](=O)[O-])cc3)cc2)SC1=S` stands 750 nM; under `COC(=O)c1ccc(-c2ccc(/C=C3\SC(=S)N([C@@H](Cc4ccccc4)C(=O)NS(=O)(=O)c4ccc(Cl)c([N+](=O)[O-])c4)C3=O)cc2)cc1`, 1400 nM.

In turn, `O=C(NS(=O)(=O)c1ccccc1)[C@H](Cc1c[nH]c2ccccc12)N1C(=O)/C(=C/c2ccc(-c3ccc(Cl)cc3)cc2)SC1=S` displayed a Ki in assay [1] of 470 nM. `O=C(NS(=O)(=O)c1ccc(Cl)cc1)[C@H](Cc1ccccc1)N1C(=O)/C(=C/c2ccc(-c3ccccc3)cc2)SC1=S` returned a Ki in assay [1] of 510 nM. For `Cc1ccc(S(=O)(=O)NC(=O)[C@H](Cc2ccccc2)N2C(=O)/C(=C/c3ccc(-c4ccccc4)cc3)SC2=S)cc1`, the results for the Ki (on Bcl-2-like protein 1 (read-out: Ki); in assay [1]; in assay [2]) were 660 nM, 720 nM and 250 nM, respectively.

In assay [1], `COC(=O)c1ccc(-c2ccc(/C=C3\SC(=S)N([C@@H](Cc4ccc(Br)cc4)C(=O)NS(=O)(=O)c4ccccc4)C3=O)cc2)cc1` came in with a Ki of 460 nM.

On to `O=C(NS(=O)(=O)c1ccccc1)[C@H](Cc1ccc(Br)cc1)N1C(=O)/C(=C/c2ccc(-c3ccc(Cl)cc3)cc2)SC1=S`, for which the Ki on Bcl-2-like protein 1 (read-out: Ki) amounted to 390 nM; in assay [1] it was 470 nM; in assay [2] it was 66 nM. Besides, the half-inhibitory concentration (IC50) in the assay on MDA-MB-231 is 28800 nM; in “cells”, greater than 50000 nM; in the assay on K562 it was 20900 nM.

On to `O=C(NS(=O)(=O)c1ccccc1)[C@H](Cc1ccccc1)N1C(=O)/C(=C/c2ccc(-c3ccc([N+](=O)[O-])cc3)cc2)SC1=S`, for which, in assay [1], the affinity, expressed as Ki, was 460 nM.

As to `O=C(NS(=O)(=O)c1ccc(Cl)c([N+](=O)[O-])c1)[C@H](Cc1ccccc1)N1C(=O)/C(=C/c2ccc(-c3ccccc3)cc2)SC1=S`, in assay [1], the Ki stood at 540 nM.

Take `O=C(NS(=O)(=O)c1ccc([N+](=O)[O-])cc1)[C@H](Cc1ccccc1)N1C(=O)/C(=C/c2ccc(-c3ccccc3)cc2)SC1=S`: in assay [1], the affinity corresponds to a Ki of 450 nM. Regarding `O=C(NS(=O)(=O)c1ccc(Cl)c([N+](=O)[O-])c1)[C@H](Cc1ccc(Br)cc1)N1C(=O)/C(=C/c2ccc(-c3ccc([N+](=O)[O-])cc3)cc2)SC1=S`, in assay [1], the Ki is greater than 50000 nM. The compound `O=C(NS(=O)(=O)c1ccc([N+](=O)[O-])cc1)[C@H](Cc1ccc(Br)cc1)N1C(=O)/C(=C/c2ccc(-c3ccc(C(F)(F)F)cc3)cc2)SC1=S` displayed a Ki in assay [1] of 900 nM. For `O=C(NS(=O)(=O)c1ccccc1)[C@H](Cc1c[nH]c2ccccc12)N1C(=O)/C(=C/c2ccc(-c3ccc([N+](=O)[O-])cc3)cc2)SC1=S`, the inhibition constant (Ki) in assay [1] was determined as 540 nM. Turning to `O=C(NS(=O)(=O)c1ccc([N+](=O)[O-])cc1)[C@H](Cc1c[nH]c2ccccc12)N1C(=O)/C(=C/c2ccc(-c3ccc(C(F)(F)F)cc3)cc2)SC1=S`, the Ki in assay [1] stood at 750 nM. `CC[C@H](C)[C@@H](C(=O)NS(=O)(=O)c1ccccc1)N1C(=O)/C(=C/c2ccc(-c3ccccc3)cc2)SC1=S` showed a Ki in assay [1] of 410 nM. `O=C(NS(=O)(=O)c1ccc([N+](=O)[O-])cc1)[C@H](Cc1ccccc1)N1C(=O)/C(=C/c2ccc(-c3ccc([N+](=O)[O-])cc3)cc2)SC1=S` showed a Ki in assay [1] of 800 nM. Regarding `O=C(NS(=O)(=O)c1ccc([N+](=O)[O-])cc1)[C@H](Cc1ccc(Br)cc1)N1C(=O)/C(=C/c2ccc(-c3ccc(Cl)cc3)cc2)SC1=S`, the Ki was determined as 490 nM on Bcl-2-like protein 1 (read-out: Ki), 710 nM in assay [1] and 63 nM in assay [2]. For the same compound, the IC50 in the assay on MDA-MB-231 worked out at 28600 nM; in “cells”, 24100 nM; in the assay with K562, 9440 nM. Consider `O=C(NS(=O)(=O)c1ccc(Cl)c([N+](=O)[O-])c1)[C@H](Cc1c[nH]c2ccccc12)N1C(=O)/C(=C/c2ccc(-c3ccc(Cl)cc3)cc2)SC1=S`, for which, in assay [1], affinity was put at a Ki of 5600 nM. In turn, `O=C(NS(=O)(=O)c1ccc([N+](=O)[O-])cc1)[C@H](Cc1ccccc1)N1C(=O)/C(=C/c2ccc(-c3ccc(C(F)(F)F)cc3)cc2)SC1=S` came in with a Ki in assay [1] of 850 nM. Regarding `O=C(NS(=O)(=O)c1ccc(Cl)c([N+](=O)[O-])c1)[C@H](Cc1ccc(Br)cc1)N1C(=O)/C(=C/c2ccc(-c3ccc(C(F)(F)F)cc3)cc2)SC1=S`, in assay [1], the inhibition constant Ki was found to be 1200 nM. In the case of `O=C(NS(=O)(=O)c1ccc(Cl)c([N+](=O)[O-])c1)[C@H](Cc1ccccc1)N1C(=O)/C(=C/c2ccc(-c3ccc([N+](=O)[O-])cc3)cc2)SC1=S`, the Ki in assay [1] was 2400 nM. Compound `O=C(NS(=O)(=O)c1ccc(Cl)c([N+](=O)[O-])c1)[C@H](Cc1ccccc1)N1C(=O)/C(=C/c2ccc(-c3ccc(C(F)(F)F)cc3)cc2)SC1=S` had a Ki in assay [1] of 870 nM. For the compound `Cc1cc2c(C(C)C)c(O)c(O)c(C=O)c2c(O)c1-c1c(C)cc2c(C(C)C)c(O)c(O)c(C=O)c2c1O` [GOSSYPOL], the IC50 stood at 9210 nM in the assay on MDA-MB-231, 6260 nM in “cells” and 4550 nM with K562. In assay [1], `C[C@@H](C(=O)NS(=O)(=O)c1ccccc1)N1C(=O)/C(=C/c2ccc(-c3ccccc3)cc2)SC1=S` returned a Ki of 2400 nM. On to `O=C(NS(=O)(=O)c1ccccc1)[C@H](Cc1c[nH]c2ccccc12)N1C(=O)/C(=C/c2ccc(-c3ccccc3)cc2)SC1=S`, for which, in assay [1], affinity was put at a Ki of 730 nM.
